Data set [1] has as its target T1, Gonadotropin-releasing hormone receptor (Homo sapiens, UniProt P30968).
T1 sequence (P30968 whole entry): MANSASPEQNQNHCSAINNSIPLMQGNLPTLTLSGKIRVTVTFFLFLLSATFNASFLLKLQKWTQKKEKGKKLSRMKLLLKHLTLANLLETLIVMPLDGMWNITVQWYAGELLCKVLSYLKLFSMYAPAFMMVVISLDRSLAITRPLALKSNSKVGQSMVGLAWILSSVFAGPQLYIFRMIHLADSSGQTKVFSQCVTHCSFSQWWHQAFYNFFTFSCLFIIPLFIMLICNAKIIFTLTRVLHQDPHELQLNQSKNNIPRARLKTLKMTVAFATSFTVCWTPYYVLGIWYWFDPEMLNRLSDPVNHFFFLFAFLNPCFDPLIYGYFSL
Description: Concentration required for the inhibition of phosphatidyl inositol hydrolysis in chinese hamster ovary cells expressing human GnRH receptor (Gonadotropin Release Hormone receptor). It is filed as functional, cell-based.

The target of data set [2] is T1, Gonadotropin-releasing hormone receptor. Description: Concentration required for the inhibition of I-125 labeled buserelin binding to the human Gonadotropin-releasing hormone receptor.
The nature of data set [3]: Half-life of compound in plasma of dog was determined. The format is ADME, organism-based, Canis lupus familiaris.
The nature of data set [4]: Oral bioavailability in dog. The format is ADME, organism-based, Canis lupus familiaris. The conditions noted are these: in vivo.
A short description of data set [5]: Half-life of compound was determined in dogs. The format is ADME, organism-based, Canis lupus familiaris. The conditions noted are these: dog, in vivo.
Data set [6] in a line: Half-life of compound was determined in rats. It is filed as ADME, organism-based. The conditions noted are these: rat, in vivo.
A short description of data set [7]: Oral bioavailability of compound was determined in rats. The format is ADME, organism-based. The conditions noted are these: rat, in vivo.

With `Cc1cc(C)cc(-c2[nH]c3ccc(C(C)(C)C(=O)N4CC5CCC4CC5)cc3c2[C@H](C)CNCCc2cc[n+]([O-])cc2C)c1`, the results for the half-inhibitory concentration (IC50) in data set [1] and in data set [2] were 26 nM and 0.8 nM, respectively.

On to `CCCc1cc(CCNC[C@@H](C)c2c(-c3cc(C)cc(C)c3)[nH]c3ccc(C(C)(C)C(=O)N4CC5CCC4CC5)cc23)ccn1`, for which the half-maximal inhibitory concentration (IC50) (commonly the concentration that inhibits the measured activity by half) in data set [1] amounted to 62 nM; in data set [2], 4.6 nM.

With `COCc1cc(CCNC[C@@H](C)c2c(-c3cc(C)cc(C)c3)[nH]c3ccc(C(C)(C)C(=O)N4CC5CCC4CC5)cc23)ccn1`, the results for the concentration for half-maximal inhibition (IC50) in data set [1] and in data set [2] were 55 nM and 0.7 nM, respectively.

As to `Cc1cc(C)cc(-c2[nH]c3ccc(C(C)(C)C(=O)N4CC5CCC4CC5)cc3c2[C@H](C)CNCCc2cc(C)nc(C)c2)c1`, the half-maximal inhibitory concentration (IC50) worked out at 24 nM in data set [1] and 0.4 nM in data set [2].

`Cc1cc(C)cc(-c2[nH]c3ccc(C(C)(C)C(=O)N4CC5CCC4CC5)cc3c2[C@H](C)CNCCc2ccnc(C(C)O)c2)c1` (stereo partly specified): the IC50 came out at 20 nM in data set [1] and 0.6 nM in data set [2].

On to `Cc1cc(C)cc(-c2[nH]c3ccc(C(C)(C)C(=O)N4CC5CCC4CC5)cc3c2[C@H](C)CNCCc2ccnc(C(=O)O)c2)c1`, for which the IC50 in data set [1] was found to be 371 nM; in data set [2] it was 8.2 nM.

In the case of `Cc1cc(C)cc(-c2[nH]c3ccc(C(C)(C)C(=O)N4CC5CCC4CC5)cc3c2[C@H](C)CNCCc2ccnc(C#N)c2)c1`, the IC50 was found to be 11 nM in data set [1] and 0.7 nM in data set [2].

`Cc1cc(C)cc(-c2[nH]c3ccc(C(C)(C)C(=O)N4CC5CCC4CC5)cc3c2[C@H](C)CNCCc2ccnc(C(C)(C)O)c2)c1`: the values for the IC50 in data set [1] and in data set [2] were 106 nM and 0.7 nM, respectively.

For the molecule `CC(=O)OCc1cc(CCNC[C@@H](C)c2c(-c3cc(C)cc(C)c3)[nH]c3ccc(C(C)(C)C(=O)N4CC5CCC4CC5)cc23)ccn1`, the IC50 came out at 22 nM in data set [1] and 0.4 nM in data set [2].

`Cc1cc(C)cc(-c2[nH]c3ccc(C(C)(C)C(=O)N4CC5CCC4CC5)cc3c2[C@H](C)CNCCc2ccnc(CO)c2)c1`: the IC50 in data set [1] is 7.5 nM; in data set [2] it was 0.4 nM. For the same molecule, the half-life (in general, how long it takes for the measured level to halve) in data set [3] is 2 h. Also, in data set [4], the bioavailability – broadly, the share of a dose that reaches the circulation, judged against a reference dose that is usually intravenous – was 15%.

As to `CC(=O)c1cc(CCNC[C@@H](C)c2c(-c3cc(C)cc(C)c3)[nH]c3ccc(C(C)(C)C(=O)N4CC5CCC4CC5)cc23)ccn1`, the IC50 in data set [1] was determined as 12 nM; in data set [2], 0.6 nM.

For `Cc1cc(C)cc(-c2[nH]c3ccc(C(C)(C)C(=O)N4CC5CCC4CC5)cc3c2[C@H](C)CNCCc2cc[n+]([O-])cc2)c1`, the IC50 in data set [1] worked out at 6.4 nM; in data set [2], 0.3 nM. For the same molecule, the bioavailability in data set [4] was determined as 14%.

With `COC(=O)c1cc(CCNC[C@@H](C)c2c(-c3cc(C)cc(C)c3)[nH]c3ccc(C(C)(C)C(=O)N4CC5CCC4CC5)cc23)ccn1`, the IC50 in data set [1] is 25 nM; in data set [2], 0.9 nM.

With `Cc1cc(C)cc(-c2[nH]c3ccc(C(C)(C)C(=O)N4CC5CCC4CC5)cc3c2[C@H](C)CNCCc2ccncc2C)c1`, the IC50 was found to be 48 nM in data set [1] and 0.8 nM in data set [2].

`Cc1cc(C)cc(-c2[nH]c3ccc(C(C)(C)C(=O)N4CC5CCC4CC5)cc3c2[C@H](C)CNCCc2ccnc(C)c2)c1`: the IC50 stood at 8.7 nM in data set [1] and 0.9 nM in data set [2]. In data set [4], this molecule returned a bioavailability of 36%.

As for `Cc1cc(C)cc(-c2[nH]c3ccc(C(C)(C)C(=O)N4CC5CCC4CC5)cc3c2[C@H](C)CNCCc2cc[n+]([O-])c(C)c2)c1`, the values for the half-life in data set [5] and in data set [6] were 5 h and 2 h, respectively. Moreover, the IC50 in data set [1] turned out to be 5.9 nM; in data set [2] it was 0.3 nM. Besides, the bioavailability in data set [7] worked out at 23%; in data set [4] it was 25%.

In the case of `Cc1cc(C)cc(-c2[nH]c3ccc(C(C)(C)C(=O)N4CC5CCC4CC5)cc3c2[C@H](C)CNCCc2cc(C)[n+]([O-])c(C)c2)c1`, in data set [5], the half-life is 7 h. The results for the IC50 in data set [1] and in data set [2] were 10 nM and 0.5 nM, respectively. The bioavailability in data set [4] is 29%.

Consider `CCc1cc(CCNC[C@@H](C)c2c(-c3cc(C)cc(C)c3)[nH]c3ccc(C(C)(C)C(=O)N4CC5CCC4CC5)cc23)ccn1`, for which the figures for the IC50 in data set [1] and in data set [2] were 19 nM and 3.3 nM, respectively.

These data come from ChEMBL document CHEMBL1134973, “Modification of the pyridine moiety of non-peptidyl indole GnRH receptor antagonists” (Bioorg Med Chem Lett, 2002).
